Assay results reported in ChEMBL document CHEMBL1201862, “PubChem BioAssay data set” (2004).
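A five-concentration, 48-hour dose response in 96-well plates underlies each endpoint, interpolated linearly between surrounding concentrations. GI50 = concentration required for 50% inhibition of growth.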 Active and inactive are the calls of the source. Rule as the data show it: active = GI50 up to about 1.1 µM and inactive = higher.

What was measured:
Assay in all cases: NCI-60 cell line screen, 48 h
[1] = test system: SW-620
[2] = test system: OVCAR-5
[3] = test system: OVCAR-3
[4] = test system: 786-0
[5] = test system: DLD-1
[6] = test system: HCT-116
[7] = test system: ACHN
[8] = test system: SF-268
[9] = test system: SNB-19
[10] = test system: SK-MEL-2
[11] = test system: SNB-78
[12] = test system: OVCAR-8
[13] = test system: HT-29
[14] = test system: COLO 205
[15] = test system: UO-31
[16] = test system: UACC-257
[17] = test system: HOP-92
[18] = test system: NCI/ADR-RES
[19] = test system: MDA-MB-231
[20] = test system: MDA-N

Measured: GI50

CC#COP(=O)(OCC)OCC
inactive: [1] > 100 µM | [2] > 100 µM | [3] > 100 µM | [4] > 100 µM | [5] > 100 µM | [6] > 100 µM | [7] > 100 µM | [8] > 100 µM | [9] > 100 µM | [10] > 100 µM | [11] > 100 µM | [12] > 100 µM | [13] > 100 µM | [14] > 100 µM | [15] > 100 µM | [16] > 100 µM

CC(C)NC(C)C(C)c1ccccc1 (stereo unspecified)
inactive: [1] > 100 µM | [3] > 100 µM | [4] > 100 µM | [5] > 100 µM | [6] > 100 µM | [7] > 100 µM | [8] > 100 µM | [9] > 100 µM | [10] > 100 µM | [12] > 100 µM | [13] > 100 µM | [14] > 100 µM | [15] > 100 µM | [16] > 100 µM

C#Cc1ccccc1N1C(=O)C=CC1=O
inactive: [1] > 100 µM | [2] > 100 µM | [3] > 100 µM | [4] > 100 µM | [5] > 100 µM | [6] > 100 µM | [7] > 100 µM | [8] > 100 µM | [9] > 100 µM | [10] > 100 µM | [11] > 100 µM | [12] > 100 µM | [13] > 100 µM | [14] > 100 µM | [15] > 100 µM | [16] > 100 µM

CCCCCCCCCCCCCCCCCC(CCCCCCCCCCCCCCCCC)OP(=O)(O)O
inactive: [1] > 100 µM | [2] > 100 µM | [3] > 100 µM | [4] > 100 µM | [6] > 100 µM | [7] > 100 µM | [8] > 100 µM | [9] > 100 µM | [10] > 100 µM | [11] > 100 µM | [12] > 100 µM | [13] > 100 µM | [14] > 100 µM | [15] > 100 µM | [16] > 100 µM | [17] > 100 µM

CC(C)C(=O)N[C@@H](C)C(=O)N(Cc1ccc2ccccc2c1)N=O
inactive: [1] 55.5 µM | [2] 48.8 µM | [3] 62.7 µM | [4] > 100 µM | [5] > 100 µM | [6] 68.9 µM | [7] > 100 µM | [8] > 100 µM | [9] > 100 µM | [10] 98.9 µM | [11] > 100 µM | [12] > 100 µM | [13] > 100 µM | [14] > 100 µM | [15] 30 µM | [16] > 100 µM

CCCC(=O)Nc1ccc(O)c2c1C1CCCCCC21 (stereo unspecified)
inactive: [1] > 100 µM | [4] > 100 µM | [6] 85.3 µM | [7] 71.8 µM | [8] > 100 µM | [9] > 100 µM | [10] > 100 µM | [11] > 100 µM | [12] > 100 µM | [13] > 100 µM | [14] > 100 µM | [15] 63.2 µM | [16] 46.7 µM

CCOC(=O)C1N(S(=O)(=O)c2ccc(C)cc2)CCC12c1ccccc1NC2c1ccc(OC)c(OC)c1 (stereo unspecified)
inactive: [1] 27.4 µM | [2] > 100 µM | [3] > 100 µM | [4] > 100 µM | [5] > 100 µM | [6] 60.7 µM | [7] > 100 µM | [8] > 100 µM | [9] > 100 µM | [11] > 100 µM | [12] > 100 µM | [13] > 100 µM | [14] > 100 µM | [15] > 100 µM | [16] > 100 µM | [17] 10.7 µM

CCOC(=O)C(NC(=O)c1ccccc1)(Nc1ccc(S(=O)(=O)Nc2nc(C)cc(C)n2)cc1)C(F)(F)F (stereo unspecified)
inactive: [18] > 100 µM | [1] > 100 µM | [2] > 100 µM | [3] > 100 µM | [4] > 100 µM | [19] 86.5 µM | [6] > 100 µM | [7] > 100 µM | [8] > 100 µM | [9] > 100 µM | [10] > 100 µM | [12] > 100 µM | [13] > 100 µM | [20] > 100 µM | [14] > 100 µM | [15] > 100 µM | [16] > 100 µM | [17] > 100 µM

CC(=O)C1=C(O)C2C3c4c[nH]c5cccc(c45)CC3C(C)(C)N2C1=O (stereo unspecified)
inactive: [1] 30.3 µM | [2] 16.6 µM | [3] 23.1 µM | [4] 19.3 µM | [5] 40.8 µM | [7] 28.2 µM | [8] 27.4 µM | [9] 15.4 µM | [10] 13.1 µM | [11] > 100 µM | [13] 34.4 µM | [14] > 100 µM | [15] 25.6 µM | [16] 62.2 µM | [17] > 100 µM

C=C1C[C@@H]2O[C@H]3[C@H]4[C@@H](C[C@@H](C)[C@@H](OC(C)=O)[C@H]42)[C@@H](C)CO[C@@]3(C)[C@H](OC(C)=O)C[C@H]1O
inactive: [18] > 100 µM | [1] 55.6 µM | [2] > 100 µM | [3] 65.2 µM | [4] > 100 µM | [19] > 100 µM | [6] > 100 µM | [7] > 100 µM | [8] > 100 µM | [9] > 100 µM | [10] > 100 µM | [12] 82.6 µM | [13] 63.2 µM | [20] 40.5 µM | [14] 88.1 µM | [15] 77.6 µM | [16] > 100 µM | [17] 66.8 µM

Cc1ccc(I)cc1N=C=S
inactive: [18] 25.9 µM | [1] 32.7 µM | [2] 23.4 µM | [3] 31 µM | [4] 23.6 µM | [19] 28.2 µM | [6] 29.8 µM | [7] 22.8 µM | [8] 27.6 µM | [9] 23.5 µM | [10] 17.8 µM | [12] 38.4 µM | [13] 23.5 µM | [20] 27.9 µM | [14] 18.2 µM | [15] 17.3 µM | [16] 25 µM | [17] 43.4 µM

COc1ccc(C(=O)O/N=C2\CCCC\C2=C/c2ccccc2)cc1
inactive: [1] > 100 µM | [4] 33.8 µM | [5] > 100 µM | [6] > 100 µM | [7] 67.3 µM | [8] 67.1 µM | [9] 58.3 µM | [11] 34 µM | [12] > 100 µM | [13] > 100 µM | [14] > 100 µM | [15] > 100 µM

O=C1C=C(N2CCN(CCOCCO)CC2)C(=O)c2c(O)ccc(O)c21
inactive: [18] 2.94 µM | [1] 2.31 µM | [2] 3.9 µM | [3] 1.82 µM | [4] 8.55 µM | [19] 7.35 µM | [6] 2.02 µM | [7] 7.4 µM | [8] 17.3 µM | [9] 18.4 µM | [10] 6.97 µM | [12] 3.44 µM | [13] 4.48 µM | [20] 1.84 µM | [14] 1.38 µM | [15] 10.3 µM | [16] 1.62 µM | [17] 7.89 µM

O=C(NCCC1CNc2ccccc21)OCc1ccccc1 (stereo unspecified)
inactive: [18] > 100 µM | [1] > 100 µM | [2] > 100 µM | [3] > 100 µM | [4] > 100 µM | [19] > 100 µM | [6] > 100 µM | [7] > 100 µM | [8] > 100 µM | [9] > 100 µM | [10] > 100 µM | [12] > 100 µM | [13] > 100 µM | [20] > 100 µM | [14] > 100 µM | [15] > 100 µM | [16] > 100 µM | [17] > 100 µM

COC1=CC(=O)C2=C(C1=O)[C@H]1CC[C@]3(C)C(=O)CC[C@H]3[C@@H]1CC2
inactive: [18] 20.1 µM | [1] 26.4 µM | [2] 20.3 µM | [3] 23.3 µM | [4] 24.1 µM | [19] 4 µM | [6] 18.5 µM | [7] 27.3 µM | [8] 21.5 µM | [9] > 100 µM | [10] 18.7 µM | [12] 18.1 µM | [13] 26.3 µM | [20] 25.2 µM | [14] 39.8 µM | [15] 22.2 µM | [16] 22.9 µM | [17] 19.8 µM

C#CCNC(=O)NCCCC(NC(C)=O)C(=O)NCc1ccccc1 (stereo unspecified)
inactive: [1] > 100 µM | [2] > 100 µM | [3] > 100 µM | [4] > 100 µM | [5] > 100 µM | [6] > 100 µM | [7] > 100 µM | [8] > 100 µM | [9] > 100 µM | [11] > 100 µM | [12] > 100 µM | [13] > 100 µM | [14] > 100 µM | [15] > 100 µM | [16] > 100 µM | [17] > 100 µM

COC(=O)c1ccc(/N=N/N(C)COc2ccc(C#N)cc2)cc1
inactive: [18] 67 µM | [1] 53.5 µM | [2] 61 µM | [3] > 100 µM | [4] > 100 µM | [19] > 100 µM | [6] 79.4 µM | [7] 21.2 µM | [8] > 100 µM | [9] > 100 µM | [10] > 100 µM | [12] > 100 µM | [13] > 100 µM | [20] > 100 µM | [14] 61.2 µM | [15] 77.3 µM | [16] > 100 µM | [17] 34.4 µM
